These results are taken from patent publication US20090181438A1, “OPTIMIZATION OF BIOFUEL PRODUCTION” (THE OHIO STATE UNIVERSITY RESEARCH FOUNDATION, priority 2007, published 2009).

Each structure is given as a SMILES string.

For data set [1], the system named is cultures of Botryococcus braunii. The following applies: cited from earlier work.
The test system of data set [2] is Nannochloropsis sp. The data set is classed as cell-based. The procedure: Under simulated outdoor growing conditions (30 ppt, 26-37° C., 14:10 of 1000 umol, F/2) 12 liter aquaria of Nannochloropsis sp., equipped with mixers and pH controlled (˜7.2) CO2 gas input, had 25% of culture volume removed daily which was variably (0-25% of total fraction) extracted of lipids with decane (15 min) and sonic (2 sec) energy, decanted of solvent, then returned to culture, while the remaining untreated fraction (0-25%) was removed, dried and extracted with hexane.

Data set [3] has as its system Nannochloropsis sp. cultures.
Procedure: Variable fractions (0, 10%, 25%, and 50%) of identical 100 mL Nannochloropsis sp. cultures (n=2) were initially (arrows) mixed (15 min) with decane and exposed to an ultrasonic field (2 sec; 40 kHz water bath), decanted of solvent, then grown (F/2, 23° C., 24:0 of 100 μmol, 100 rpm, 33 ppt, 100 mL in 500 mL flasks). Further, variable timed treatments (arrows) at log-phase and stationary phases were also completed.

Consider `CCCCCCCCCCO` [decanol], for which, in data set [1], the “solvent toxicity / biocompatibility” value is listed as “toxic”.
Take `CCCCCCC` [heptane]: in data set [1], the “solvent toxicity / biocompatibility” value was “nontoxic”.
Turning to `CCCCCOCCCCC` [dipentyl ether], the “solvent toxicity / biocompatibility” value in data set [1] is recorded as “toxic”.
With `CCCCCCCCCC` [decane], in data set [2], the “growth rates and resultant culture biomass” value is “augment growth rates and the resultant culture biomass”; the “tolerance of daily exposure to treatment” value was “tolerated”. Further, the “growth rate and resultant algal biomass compared to no treatment” value in data set [3] is “can positively affect growth rate and resultant algal biomass”.
With `CCCCCC` [hexane], the “solvent toxicity / biocompatibility” value in data set [1] is “nontoxic”.
